Measured values published in ChEMBL document CHEMBL1158734, “Chemical conversion of nocathiacin I to nocathiacin II and a lactone analogue of glycothiohexide alpha” (2005).
≈ marks a conversion by molar mass, not a printed value.

How the values were obtained:
Assay type in all cases: functional
Streptococcus pneumoniae = experiment: Antibacterial activity against Streptococcus pneumoniae A28272
Staphylococcus aureus [1] = experiment: Antibacterial activity against Staphylococcus aureus A15090
Staphylococcus aureus [2] = experiment: Protective activity against Staphylococcus aureus A15090 infected in sc dosed mouse; conditions: read-out: PD50
Enterococcus faecalis = experiment: Antibacterial activity against Enterococcus faecalis A20688

`C=C(NC(=O)c1csc(-c2nc3c(cc2O)-c2nc(cs2)C(=O)N[C@@H]([C@@H](C)O)C(=O)N/C(=C(\C)OC)c2nc(cs2)C(=O)N[C@@H]2c4nc(cs4)C(=O)N[C@@H](COC(=O)c4[nH]c5cccc6c5c4CO[C@@H]2[C@H](O[C@H]2C[C@](C)(O)[C@H](N(C)C)[C@H](C)O2)C(=O)OC6)c2nc-3cs2)n1)C(N)=O` [NOCATHIACIN II] gave an MIC (Streptococcus pneumoniae) of 0.5 ng/mL (≈ 0.352 nM), an MIC (Staphylococcus aureus [1]) of 7 ng/mL (≈ 4.92 nM) and an ED50 (Staphylococcus aureus [2]) of under 0.62 mg/kg. The MIC (Enterococcus faecalis) was 150 ng/mL (≈ 106 nM).
In the case of `CO/C(C)=C1/NC(=O)[C@H]([C@@H](C)O)NC(=O)c2csc(n2)-c2cc(O)c(-c3nc(C(N)=O)cs3)nc2-c2csc(n2)[C@@H]2COC(=O)c3[nH]c4cccc5c4c3CO[C@H]([C@H](O[C@H]3C[C@](C)(O)[C@H](N(C)C)[C@H](C)O3)C(=O)OC5)[C@H](NC(=O)c3csc1n3)c1nc(cs1)C(=O)N2` [THIAZOMYCIN C], the MIC (Streptococcus pneumoniae) was 30 ng/mL (≈ 22.2 nM), the MIC (Staphylococcus aureus [1]) was 60 ng/mL (≈ 44.4 nM) and the ED50 (Staphylococcus aureus [2]) was 4.35 mg/kg. The MIC (Enterococcus faecalis) was 125 ng/mL (≈ 92.4 nM).
For `CO/C(C)=C1/NC(=O)[C@H]([C@@H](C)O)NC(=O)c2csc(n2)-c2cc(O)c(-c3nc(C(N)=O)cs3)nc2-c2csc(n2)[C@@H]2COC(=O)c3c4c5c(cccc5n3O)COC(=O)[C@@H](O[C@H]3C[C@](C)(O)[C@H](N(C)C)[C@H](C)O3)[C@@H](OC4)[C@H](NC(=O)c3csc1n3)c1nc(cs1)C(=O)N2` [NOCATHIACIN IV], the MIC (Streptococcus pneumoniae) was 1 ng/mL (≈ 0.731 nM), the MIC (Staphylococcus aureus [1]) was 3 ng/mL (≈ 2.19 nM) and the ED50 (Staphylococcus aureus [2]) was 1.07 mg/kg. For the same compound, the MIC (Enterococcus faecalis) was 7 ng/mL (≈ 5.12 nM).
`C=C(NC(=O)c1csc(-c2nc3c(cc2O)-c2nc(cs2)C(=O)N[C@@H]([C@@H](C)O)C(=O)N/C(=C(\C)OC)c2nc(cs2)C(=O)N[C@@H]2c4nc(cs4)C(=O)N[C@@H](COC(=O)c4c5c6c(cccc6n4O)COC(=O)[C@@H](O[C@H]4C[C@](C)(O)[C@H](N(C)C)[C@H](C)O4)[C@H]2OC5)c2nc-3cs2)n1)C(N)=O` [MJ347-81F4 A] gave an MIC (Streptococcus pneumoniae) of 2 ng/mL (≈ 1.39 nM), an MIC (Staphylococcus aureus [1]) of 7 ng/mL (≈ 4.87 nM) and an ED50 (Staphylococcus aureus [2]) of 0.31 mg/kg. It also gave an MIC (Enterococcus faecalis) of 30 ng/mL (≈ 20.9 nM).
